The target in data set [1] is T1, M.tuberculosis thiamin phosphate synthase (MtTPS) (Mycobacterium tuberculosis, UniProt P9WG75).
In data set [2] the target is T1, M.tuberculosis thiamin phosphate synthase (MtTPS). Nature of the data set: biochemical. To be noted: for inhibition at 100 µg/mL: read-out: percent inhibition of MtTPS activity.
The subject of another data set is M.smegmatis mc^2155. The data set can be described thus: MIC99 determination, broth macrodilution with CFU plating. The class given is cell-based. To be noted: for inhibition of M.smegmatis growth: at (up to) 750 µg/ml; for MIC99 for M.smegmatis: 24 hours, 99% inhibition of growth.
The subject of the next data set is M.tuberculosis H37Rv. The data set can be described thus: MIC99 determination in broth culture with CFU plating. In kind it is cell-based. To be noted: 7 days, 99% inhibition of growth; for MIC99: Mycobacterium tuberculosis, H37RV, 168 h.
The next data set concerns Cc1ncsc1CCO. Nature of the data set: purified protein, by the assay type. To be noted: pH 7.5; 37.0 °C.

≈ marks a conversion by molar mass, not a printed value. Read-outs that look alike come from different tables or passages of the source.

T1 sequence (P9WG75 whole entry, looked up): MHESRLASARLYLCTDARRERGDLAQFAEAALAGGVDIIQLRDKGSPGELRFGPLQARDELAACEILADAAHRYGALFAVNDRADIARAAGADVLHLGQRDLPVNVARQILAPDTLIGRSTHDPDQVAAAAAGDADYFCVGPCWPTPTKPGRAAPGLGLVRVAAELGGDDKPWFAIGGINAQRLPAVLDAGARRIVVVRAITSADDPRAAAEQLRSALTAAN

As to `Cc1cc(O)c(C(C)C)cc1N=Cc1cc([N+](=O)[O-])ccc1O` [Compound 9, 4-{[(2-hydroxy-5-nitrophenyl)methylidene]amino}-5-methyl-2-(propan-2-yl)phenol], the “mode of inhibition of MtTPS” value in data set [1] is listed as “competing with HMP-PP”. In data set [2], the IC50 was 108 µM and the inhibition at 100 µg/mL was above 20%. Moreover, the “inhibition of M.smegmatis growth” value with M.smegmatis mc^2155 is listed as 32% inhibition at 750 µg/ml. Also, in the data set on M.tuberculosis H37Rv, the MIC99 stood at 6 µg/mL (≈ 19.1 µM).
`O=C(Nc1cccc([N+](=O)[O-])c1)c1cc2ccccc2cc1O` [Compound 10, Naphtazol B]: the “inhibition of M.smegmatis growth” value in the data set on M.smegmatis mc^2155 is “No inhibition”. Further, the “MIC99 for M.tuberculosis” value against M.tuberculosis H37Rv turned out to be 750 µg/mL.
`CN1[C@@H]2CC[C@H]1CC(OC(c1ccccc1)c1ccccc1)C2.CS(=O)(=O)O` (stereo partly drawn) [Compound 11, 3-benzhydryloxy-8-methyl-8-azab icyclo [3.2.1]octane;methanesulfonic acid]: the “MIC99 for M.smegmatis” value against M.smegmatis mc^2155 amounted to 125 µg/mL. In addition, the “MIC99 for M.tuberculosis” value in the data set with M.tuberculosis H37Rv is 250 µg/mL.
Take `O=C(Nc1cccc([N+](=O)[O-])c1)c1ccc2ccccc2c1O` [Compound 12, 1-hydroxy-(3-nitrophenyl) naphthalene-2-carboxamide]: in data set [1], the IC50 is given as 100 µ/ml and the “percent inhibition of MtTPS activity” value is given as “greater than 20%”. Besides, the “inhibition of M.smegmatis growth” value with M.smegmatis mc^2155 is reported as 45% inhibition at 750 µg/ml.
Turning to `c1ccc(CSc2nnc3c4ccccc4c4ccccc4c3n2)cc1` [Compound 33, 3-benzylsulfanyl phenanthro[9,10-e][1,2,4]triazine], in data set [1], the IC50 came to 100 µ/ml and the “percent inhibition of MtTPS activity” value was “greater than 20%”. Besides, the “MIC99 for M.smegmatis” value against M.smegmatis mc^2155 was 150 µg/mL. Further, the “MIC99 for M.tuberculosis” value with M.tuberculosis H37Rv amounted to 162.5 µg/mL.
For `CCN(CC)c1nc(Cl)nc(Nc2ccc3cc(-c4ccccc4)c(=O)oc3c2)n1` [Compound 35, Coumarin, 7-[[4-chloro-6-(diethylamino)-s-triazin-2-yl]amino]-3-phenyl-], in data set [2], the IC50 was above 237 µM and the inhibition at 100 µg/mL is above 20%. Moreover, in the data set on M.smegmatis mc^2155, the “inhibition of M.smegmatis growth” value is on record as “No inhibition”. This compound gave an MIC99 against M.tuberculosis H37Rv of 125 µg/mL (≈ 296 µM).
“M.tuberculosis thiamin phosphate synthase (MtTPS) (Mycobacterium tuberculosis H37Rv)”: the Km with Cc1ncsc1CCO amounted to 14 µM.
